Measurements from patent US20230218573A1, “INDOLE COMPOUNDS FOR THE TREATMENT OF NEURODEGENERATIVE DISEASES” (GALYAN BIO, INC., priority 2020, published 2023).
pEC50: −log10 of the molar value. Entries after “also recorded” stand apart in the source; their conditions may differ.

How the values were obtained:
[1] = tested on: STHdh 111/111 striatal cells; assay: Cell viability (CellTiter Glo) of heat shocked STHdh 111/111 striatal cells; format: cell-based, mouse; conditions: Mus musculus, STHdh 111/111; 10 µM; 48 hours treatment; read-out: Cell Viability striatal cells 3h heat shocked
Procedure: Cell culture - ST HDH Q111/111 (CH00095, Coriell Institute) striatal derived cell line were grown at 33° C. in DMEM (Sigma-Aldrich), supplemented with 10% fetal bovine serum (FBS), 1% Penicillin-Streptomycin (ThermoFisher Scientific), and 0.4 mg/ml G418 (Geneticin; Invitrogen). ST HDH Q111/111 are mouse striatal cells with polyQ length of 1111.
(§3) Pre-Treatment of striatal cell line - First the medium was removed and new DMEM (DMEM, high glucose, HEPES, no phenol red) medium, supplemented with 10% fetal bovine serum (FBS), 1% Penicillin-Streptomycin, containing 10 µM compound was added. The cells were incubated at 33° C. for 24 hours.
(§4) Heat shock - Cells were heat shocked for 3 hours at 41° C.
(§5) Treatment - Medium was removed and new DMEM (DMEM, high glucose, HEPES, no phenol red) medium, supplemented with 1% fetal bovine serum (FBS), 1% Penicillin-Streptomycin, containing 10 µM compound was added. The cells were incubated at 33° C. for 48 hours.
Cell Viability - Cell viability was measured according to manufacturer recommendations with CellTiter Glo (Promega). 96-well plates for used either for cell viability determination or cell staining.

zebrafish larvae [2] = assay: Zebrafish MPP+ motility model, photomotor assay; format: in vivo
Procedure: MPP+ selectively targets dopaminergic neurons; the putative mechanism is induction of K+ efflux, cell membrane hyperpolarization and inhibition of neuronal firing. This ultimately leads to an inhibition of complex I, a decrease in ATP production and promotion of the generation of reactive oxygen species upon accumulation in the mitochondria (3). The observed phenotype following exposure to 500 µM from 24 hours post fertilization (hpf) to 120 hpf is characterized by a decrease in movement during lights-on phases of a photomotor assay. In unpublished data below, representative locomotor perturbations of the distance moved and movement frequency is shown.
(§1) Six groups were included in each experiment. Immediately after spawning, 40 embryos per group were allocated to a 24-well plate and system water (solvent) was added to all wells. For assessment of neuroprotective potential, Compound 4 was added for a final concentration of 1, 10 and 20 µM (column 4-6). From the following day at 24 hpf, Compound 4 was co-incubated with 500 µM MPP+. MPP+ was prepared immediately prior to incubation and solutions were changed daily. At 120 hpf, drug treatment and MPP+ exposure was ceased and a 3X wash was performed with system water. Larvae were then relocated to 96-well plates for behavioral recording and placed in a separate recording room for 24-hour acclimation. Prior to behavioral recording, wells were fully replenished system water.
(§2) Naive group was exposed to solvent only. Vehicle group was exposed to solvent and vehicle corresponding to the vehicle of 20 µM drug solution (0.02% DMSO). MPP+ positive control was exposed to solvent and 500 µM MPP+. All compound groups were treated with the respective vehicle and respective concentration of compound 4.
Behavioral data was recorded from 1 p.m. on 6 dpf until shortly after wakening on 7 dpf. The recording consisted of a photomotor assay in which lights switch off and on in 30-minute intervals between 1 p.m. and 6 p.m., producing a consistent photomotor response. […] Upon lights being turned on again, the larvae cease movement followed by a return to baseline. This cycle is repeated five times. Following the last lights-off phase, constant illumination is presented until lights turn off at 10 p.m. for the night. Lights turn on again at 8 a.m. the following day.
Average movement frequency was measured during 30-minute lights-on phases of photomotor assay. Movement bouts were defined as initiated when velocity exceeded a threshold of 2 mm/s and ceased when velocity fell below 1 mm/s.
Distance moved (mm) was defined as the average distance moved during 30-minute lights-on phases of photomotor assay.
Data was obtained using EthoVision XT (Version 11.5.2016, Noldus) and exported to Microsoft Excel for data analysis. […]

[3] = Pharmacokinetics, plasma and brain concentration by UHPLC-TOF; format: in vivo, mice; conditions: mouse, in vivo
Procedure: Compound 22 is an analog of Compound 7. […] Compound 22 pharmacokinetic properties was measured in three male CD1 mice at several timepoints. Compound 22 was dissolved in 10% DMSO, 10%, cremaphor, and 80% saline. The tested dose was 33.3 mg/kg body weight. Brain tissue was homogenized and protein precipitated with acetonitrile. […] As such, Compound 22 was selected for testing in an animal model of HD the R6/2 model. As described below, Compound 22 and its analogs were further tested for their effects on striatal cell viability and effects of mHTT levels.

STHdh 111/111 = assay: Morphology of striatal cells expressing mutated huntingtin; format: cell-based, mouse; conditions: versus not treated STHdh 111/111
phospho-Tau (Ser396) = assay: Phospho-Tau (Ser396) levels in STHdh 7/7 cells by immunocytochemistry; format: cell-based, mouse
Procedure: Effect of Compound 4 on Phospho-Tau (Ser396) levels - ST HDH Q7/7 (CH00097, Coriell Institute) striatal derived cell line from a knock in transgenic mouse containing HTT loci with a humanized Exon 1 containing 7 polyglutamine repeats. Immunocytochemistry was conducted as described in Example 33 with the exception that instead of 3B5H10 antibody for staining mHTT, phospho-Tau (Ser396) polyclonal antibody (ThermoFisher, Catalog 44-752G) was used to stain phospho-Tau (Ser396).

zebrafish larvae [4] = assay: Zebrafish MPP+ model, sleep parameters; format: in vivo; conditions: co-incubation with MPP+
Procedure: as §1, §2
Behavioral data was recorded from 1 p.m. on 6 dpf until shortly after wakening on 7 dpf. The recording consisted of a photomotor assay in which lights switch off and on in 30-minute intervals between 1 p.m. and 6 p.m., producing a consistent photomotor response. […]

phospho-Tau (Ser404) = assay: Phospho-Tau (Ser404) levels in STHdh 7/7 cells by immunocytochemistry; format: cell-based, mouse
From the text: Effect of Compound 4 on Phospho-Tau (Ser396) levels - ST HDH Q7/7 (CH00097, Coriell Institute) striatal derived cell line from a knock in transgenic mouse containing HTT loci with a humanized Exon 1 containing 7 polyglutamine repeats. Diffuse mHTT quantified with immunocytochemistry as described in Example 33 with the exception that instead of 3B5H10 antibody for staining mHTT, phospho-Tau (Ser404) polyclonal antibody (ThermoFisher, Catalog 44-758G) was used to stain phospho-Tau (Ser396) and no heat shock was used.

Exon1 Q46 = assay: Circular dichroism of Exon1 Q46, predominantly α-helical state; format: biochemical; conditions: Exon1 Q46; conc. compound 0.647 µM
Procedure: Protein samples were diluted with buffer to 7.5 µM prior to Circular Dichroism (CD) measurements. Measurements were conducted at room temperature.
Four spectra at each measurement were taken every 1 nm from 200 to 260 nm, scanning at 50 nm/min with an averaging time of 1 sec. Spectra were obtained from samples in 20 mM phosphate, pH 7.4. Ten scans were averaged for each sample spectrum
Single-wavelength readings at 222 nm were obtained. After subtraction of the Trx contribution, the α-helical content of Httex1 was estimated from its mean residue ellipticity (MREHttex1) at 222 nm. This calculation was conducted as described by Bravo-Arredondo (Bravo-Arredondo, J.M. et al., J Biol Chem. 2018 Dec 21;293(51):19613-19623).
MRE Exon-1 […] and Q46 (Mean Residue Ellipticity) was measured every 1 sec for 300 sec; the 301 readings for each sample were averaged and MRE Trx subtracted. The number of amino acids in each sample to experience a change in helicity was estimated using a previously developed helix-coil transition model, which gave the change in fraction of helicity (ΔfHelix) by the following equation: […]
where MRE Exon1 Q26 or Q46 (MREHttex1 in the formula) describes the helix-coil transition, obtained from the difference between MRE Eon1 Q26 or Q46 at 222 nm of the fusion protein at the given temperature (in our case 37° C.) and the product of MRE Trx at 222 nm at the same temperature and the fraction of residues comprised by Trx in that particular construct, and
In order to calculate an equilibrium of the two states model, percent α-helicity was calculated using the relation of MREHttex1 = 0 and -34700 (deg cm^2 dmol^-1) for 0% and 100% helicity, respectively.
The CD measurements protocol for Compound 101 was the same as outlined above except that from 206 nm - 210 nm and 220 nm - 224 nm, the step size was 0.2 nm, and the bandwidth was 1 nm.

mHTT = mHTT (Mus musculus, UniProt P42859, DEL28-30/G47A/INS49LLPQPQPP/INS60VA/L56P/P40L); assay: Diffuse mHTT levels in heat shocked STHdh 111/111 striatal cells by immunocytochemistry
Procedure: as §3, §4, §5
Staining - Cells were permeabilized with 0.3% Triton X-100 in 4° C. PBS (pH 7.4 from ThermoFisher) for 10 minutes. Then the cells were washed two times with 4° C. PBS. Subsequently, cells are blocked with 3% NGS (normal goat serum from Thermo Fisher) in 4° C. PBS for 1 hour. Cells were incubated with primary antibodies in blocking buffer (PBS, 3% NGS, 0.02% NaN3) over night at 4° C. Primary antibodies were mouse antipolyglutamine monoclonal antibody 3B5H10 (Sigma-Aldrich) at 1:250 dilution and Guinea Pig anti-MAP2 polyclonal antibody (Synaptic Systems) at 1:500 dilution. 3B5H10 binds to diffuse mHTT. Diffuse mHTT is a monomeric and small oligomeric mHTT.
Cells were washed 2 times with 4° C. PBS, and then incubated with secondary antibodies at 1:2000 dilution in blocking buffer for 1 hour at room temperature. […] Cells were washed 2 times with 4° C. PBS, and then the nuclei were counterstain with DAPI (ThermoFisher) for 10 min at room temperature in the dark. Cells were washed 2 times with 4° C. PBS, and then 4° C. PBS was added to cells and then images were acquired.
Fluorescence Imaging - Imaging sessions were performed on a confocal microscope system (Carl Zeiss Microscopy) equipped with a dual spinning disk unit (Yokogawa). All components of the imaging system were controlled via the ZEN 2 software suite (Carl Zeiss Microscopy). The laser lines used were 405 nm, 488 nm and 639 nm to excite DAPI or the respective fluorophores. […] Nested t test was performed to calculate the significance amongst repeated measurements using GraphPad Prism software.
EC 50 value was determined with non-linear regression.

[5] = 1, 10 and 20 µM with 500 µM MPP+

Chain of mHTT (P42859 with tags, fused parts or gaps DEL28-30/P40L/G47A/INS49LLPQPQPP/L56P/INS60VA): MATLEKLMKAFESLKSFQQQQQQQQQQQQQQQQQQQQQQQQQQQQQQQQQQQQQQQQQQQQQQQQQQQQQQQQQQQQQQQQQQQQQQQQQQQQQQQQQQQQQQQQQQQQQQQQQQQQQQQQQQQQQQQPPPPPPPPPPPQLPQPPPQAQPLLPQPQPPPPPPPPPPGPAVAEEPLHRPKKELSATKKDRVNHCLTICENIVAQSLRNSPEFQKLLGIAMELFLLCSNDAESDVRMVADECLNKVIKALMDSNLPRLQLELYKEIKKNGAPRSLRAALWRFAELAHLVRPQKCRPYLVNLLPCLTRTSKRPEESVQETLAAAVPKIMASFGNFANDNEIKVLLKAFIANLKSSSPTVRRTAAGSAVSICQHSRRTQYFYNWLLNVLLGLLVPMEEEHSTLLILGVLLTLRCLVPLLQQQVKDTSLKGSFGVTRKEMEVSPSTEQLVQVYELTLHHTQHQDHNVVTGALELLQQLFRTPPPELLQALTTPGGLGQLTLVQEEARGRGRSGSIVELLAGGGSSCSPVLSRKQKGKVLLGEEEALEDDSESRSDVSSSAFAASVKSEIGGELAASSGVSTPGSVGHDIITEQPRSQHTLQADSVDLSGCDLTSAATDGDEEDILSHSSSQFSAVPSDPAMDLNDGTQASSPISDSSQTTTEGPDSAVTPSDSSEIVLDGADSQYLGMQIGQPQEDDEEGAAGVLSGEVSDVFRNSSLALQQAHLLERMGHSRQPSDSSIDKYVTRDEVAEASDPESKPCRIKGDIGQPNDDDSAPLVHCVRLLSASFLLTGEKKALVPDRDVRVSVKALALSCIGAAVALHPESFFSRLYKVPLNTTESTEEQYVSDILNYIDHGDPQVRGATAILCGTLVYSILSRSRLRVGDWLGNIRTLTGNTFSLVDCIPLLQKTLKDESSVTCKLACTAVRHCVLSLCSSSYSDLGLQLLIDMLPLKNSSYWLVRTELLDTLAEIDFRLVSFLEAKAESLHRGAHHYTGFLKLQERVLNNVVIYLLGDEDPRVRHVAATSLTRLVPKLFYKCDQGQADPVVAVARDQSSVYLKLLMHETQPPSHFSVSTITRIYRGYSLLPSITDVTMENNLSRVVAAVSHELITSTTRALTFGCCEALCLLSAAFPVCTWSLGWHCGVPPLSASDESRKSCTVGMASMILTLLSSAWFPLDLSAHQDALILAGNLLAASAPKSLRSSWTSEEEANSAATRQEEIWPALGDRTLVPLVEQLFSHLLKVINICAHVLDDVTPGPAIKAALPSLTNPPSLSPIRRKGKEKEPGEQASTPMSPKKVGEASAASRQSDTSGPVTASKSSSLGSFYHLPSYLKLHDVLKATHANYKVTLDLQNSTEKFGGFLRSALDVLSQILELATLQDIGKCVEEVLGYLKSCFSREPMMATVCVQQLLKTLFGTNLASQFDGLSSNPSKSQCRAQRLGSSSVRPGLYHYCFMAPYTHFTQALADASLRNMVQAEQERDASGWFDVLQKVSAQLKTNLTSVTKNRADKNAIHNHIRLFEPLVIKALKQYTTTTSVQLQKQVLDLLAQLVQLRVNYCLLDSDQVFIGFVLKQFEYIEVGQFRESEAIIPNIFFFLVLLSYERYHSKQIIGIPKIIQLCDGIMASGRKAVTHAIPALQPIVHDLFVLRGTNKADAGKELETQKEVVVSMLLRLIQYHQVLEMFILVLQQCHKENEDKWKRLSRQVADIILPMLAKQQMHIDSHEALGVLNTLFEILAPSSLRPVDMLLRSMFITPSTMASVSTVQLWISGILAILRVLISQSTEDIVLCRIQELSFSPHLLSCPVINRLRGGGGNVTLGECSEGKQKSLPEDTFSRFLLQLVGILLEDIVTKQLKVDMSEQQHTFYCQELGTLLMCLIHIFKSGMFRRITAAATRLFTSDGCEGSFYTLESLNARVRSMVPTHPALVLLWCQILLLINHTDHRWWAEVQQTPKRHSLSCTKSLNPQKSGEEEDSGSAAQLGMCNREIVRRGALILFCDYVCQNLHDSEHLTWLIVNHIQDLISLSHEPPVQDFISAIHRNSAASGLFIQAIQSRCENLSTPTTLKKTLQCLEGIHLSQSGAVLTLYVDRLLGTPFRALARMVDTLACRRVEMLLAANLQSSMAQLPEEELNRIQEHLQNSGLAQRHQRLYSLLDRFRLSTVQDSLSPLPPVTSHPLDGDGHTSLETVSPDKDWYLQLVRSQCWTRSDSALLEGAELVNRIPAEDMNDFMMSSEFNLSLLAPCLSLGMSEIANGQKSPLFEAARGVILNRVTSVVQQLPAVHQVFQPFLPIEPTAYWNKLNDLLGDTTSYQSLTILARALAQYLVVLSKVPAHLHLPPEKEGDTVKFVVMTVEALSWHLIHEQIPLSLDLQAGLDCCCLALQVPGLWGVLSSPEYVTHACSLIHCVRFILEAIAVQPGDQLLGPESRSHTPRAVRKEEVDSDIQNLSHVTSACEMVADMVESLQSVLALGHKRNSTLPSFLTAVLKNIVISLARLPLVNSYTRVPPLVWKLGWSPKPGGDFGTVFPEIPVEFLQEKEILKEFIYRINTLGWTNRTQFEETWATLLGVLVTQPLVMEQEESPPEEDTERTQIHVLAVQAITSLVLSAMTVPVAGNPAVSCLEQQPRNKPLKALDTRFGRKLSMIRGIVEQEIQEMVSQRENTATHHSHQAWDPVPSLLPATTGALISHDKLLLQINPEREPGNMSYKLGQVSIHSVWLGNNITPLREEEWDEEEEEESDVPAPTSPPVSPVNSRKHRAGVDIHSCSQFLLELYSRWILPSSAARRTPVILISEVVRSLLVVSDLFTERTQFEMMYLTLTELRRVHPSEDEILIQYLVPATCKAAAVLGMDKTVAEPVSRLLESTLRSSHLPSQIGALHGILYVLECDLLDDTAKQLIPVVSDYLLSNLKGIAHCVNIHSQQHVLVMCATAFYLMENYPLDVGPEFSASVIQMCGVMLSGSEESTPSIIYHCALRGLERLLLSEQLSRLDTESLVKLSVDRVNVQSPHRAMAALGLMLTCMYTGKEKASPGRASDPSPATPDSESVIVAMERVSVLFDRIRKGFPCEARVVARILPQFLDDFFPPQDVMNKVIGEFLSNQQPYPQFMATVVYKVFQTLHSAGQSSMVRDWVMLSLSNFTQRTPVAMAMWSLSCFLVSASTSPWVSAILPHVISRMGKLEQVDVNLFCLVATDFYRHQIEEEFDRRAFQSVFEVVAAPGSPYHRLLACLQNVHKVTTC

SMILES: CCc1c(C)[nH]c2ccc(C(=O)NCCN(CC)CC)cc12 [Compound 4, N-(2-(diethylamino)ethyl)-3-ethyl-2-methyl-1H-indole-5-carboxamide]
- viability at 10 µM [1]: 125%
- distance moved, drug treatment groups compared to MPP+ (zebrafish larvae [2]; [5]): no significant difference
- movement frequency, drug treatment groups compared to MPP+ (zebrafish larvae [2]; [5]): no significant difference
- overall movement during assessment of neuroprotection (zebrafish larvae [2]; concentrations ~10 µM and ~1 µM with MPP+): subtle increase in overall movement
- crossing of the blood brain barrier [3]: can cross the blood brain barrier
- morphology of STHdh 111/111 (STHdh 111/111): improved cell viability, dendrite outgrowth and increased cell size
- Phospho-Tau (Ser396) reduced by (phospho-Tau (Ser396); STHdh 7/7, 10 µM, in comparison to untreated cells): 26.3%
- Phospho-Tau (Ser396) reduction (phospho-Tau (Ser396); STHdh 7/7 exposed to 10 mM ammonium chloride, 5 µM): could not reduce
- Phospho-Tau (Ser396) reduction (phospho-Tau (Ser396); STHdh 7/7 exposed to ammonium chloride, 10 µM): 15.2%
- sleep parameters (sleep fragmentation, sleep ratio, velocity, wake bout duration, sleep bout duration) (zebrafish larvae [4]): No statistically significant difference; also recorded: does neither reduce nor increase sleep
- Phospho-Tau (Ser404) reduced by (phospho-Tau (Ser404); STHdh 7/7, 10 µM, no heat shock, in comparison to untreated cells): 40%
- Phospho-Tau (Ser404) reduction (phospho-Tau (Ser404); STHdh 7/7 exposed to 10 mM ammonium chloride): could not reduce
- Fraction Helix fH (%) (Exon1 Q46): 20.0%
- pEC50 (mHTT): 6.89
- Diffuse mHTT reduced by (mHTT; STHdh 111/111, in comparison to untreated cells): 68%
